Data on one molecule can be found in patent US7220587B2 (priority 2001, dated 2007).

Assay [1] deals with Wild-type Landsberg seedlings. The assay can be described thus: taxol treatment of dark-grown wild-type seedlings. It is filed as in vivo, Arabidopsis thaliana. The settings on record: 10 days in the dark. The source says:
(§1) The role of ethylene in the reduction of hypocotyl and root elongation has not yet been elucidated. One possibility relates to the theory that cortical microtubules associated with the plasma membrane may direct the cellulose synthase complex that is responsible for cell wall deposition. The drug taxol acts to stabilize microtubules by inhibiting microtubule depolymerization (Schiff and Horwitz 1981) and may inhibit the shift in cortical microtubules upon ethylene treatment,(Heinstein and Chang 1994). To determine if taxol could affect the ethylene insensitivity phenotype of ein6/een mutants, wild-type and ein6/een mutants were given a 10 day taxol treatment in the dark (Example 12).
(§2) Wild-type Landsberg seedlings or ein6/een mutant seedlings were grown in the presence of either 0 μM, 0.1 μM, or 1 μM taxol for 10 days in the dark, following the method of Roman and Ecker (Phil. Trans. R. Soc. Lond. B. 350: 75–81, 1995, which is herein incorporated by reference in its entirety). […] Hypocotyl cells of the taxol-treated tissue appeared shorter and rounder than wild-type cells. […] From these observations, it has been concluded that the ein6/een double mutation, (or possibly the een single mutation) is responsible for the taxol sensitivity phenotype.

The subject of assay [2] is ein6/een mutant seedlings. The assay can be described thus: taxol treatment of dark-grown ein6/een double mutant seedlings. It is filed as in vivo, Arabidopsis thaliana.
Description: as §1, §2

Consider `CC(=O)O[C@H]1C(=O)[C@@]2(C)[C@H]([C@H](OC(=O)c3ccccc3)[C@]3(O)C[C@H](OC(=O)[C@H](O)[C@@H](NC(=O)c4ccccc4)c4ccccc4)C(C)=C1C3(C)C)[C@]1(OC(C)=O)CO[C@@H]1C[C@@H]2O` [taxol], for which the “seedling size compared to untreated seedlings” value in assay [1] (0.1 μM taxol) is on record as “did not have an altered size”. Moreover, the “effect on seedling elongation” value in assay [1] (1 μM taxol) is recorded as “inhibition of elongation”. Besides, the “seedling phenotype (length)” value in assay [2] (0.1 μM taxol, 10 days in the dark) is “shortened phenotype”. The “seedling length compared to non-treated ein6/een mutant seedlings” value in assay [2] (1 μM taxol, 10 days in the dark) was “significantly shorter”. For the same molecule, in assay [2] (low levels (0.1 μM) of taxol, 10 day treatment in the dark), the “sensitivity of mutants to taxol” value is given as “especially sensitive”.
